The values that follow come from paper PMC6026185 (Scientific Reports, 2018).

The conditions of data set [1]: ref [9],[10]; cited from earlier work.
In data set [2] the test system is hNKCC1. To be noted: HEK-293 cells; activated state; NKCC1 isoforms not differentiated; ref Payne et al.[57]; Isenring et al.[58]; Plata et al.[59]; Carota et al.[56]; Lykke et al.[60]; Lykke et al.[29]; cited from earlier work.
Data set [3] deals with T1, hNKCC1A (Homo sapiens, UniProt P55011).
T1 construct: Full-length NKCC1 (NKCC1A) comprises ~1200 amino acids; expressed in transfected cells; host or cells: Xenopus laevis oocytes injected with cRNA (pXOOM vector)
T1 sequence (P55011 1-1212): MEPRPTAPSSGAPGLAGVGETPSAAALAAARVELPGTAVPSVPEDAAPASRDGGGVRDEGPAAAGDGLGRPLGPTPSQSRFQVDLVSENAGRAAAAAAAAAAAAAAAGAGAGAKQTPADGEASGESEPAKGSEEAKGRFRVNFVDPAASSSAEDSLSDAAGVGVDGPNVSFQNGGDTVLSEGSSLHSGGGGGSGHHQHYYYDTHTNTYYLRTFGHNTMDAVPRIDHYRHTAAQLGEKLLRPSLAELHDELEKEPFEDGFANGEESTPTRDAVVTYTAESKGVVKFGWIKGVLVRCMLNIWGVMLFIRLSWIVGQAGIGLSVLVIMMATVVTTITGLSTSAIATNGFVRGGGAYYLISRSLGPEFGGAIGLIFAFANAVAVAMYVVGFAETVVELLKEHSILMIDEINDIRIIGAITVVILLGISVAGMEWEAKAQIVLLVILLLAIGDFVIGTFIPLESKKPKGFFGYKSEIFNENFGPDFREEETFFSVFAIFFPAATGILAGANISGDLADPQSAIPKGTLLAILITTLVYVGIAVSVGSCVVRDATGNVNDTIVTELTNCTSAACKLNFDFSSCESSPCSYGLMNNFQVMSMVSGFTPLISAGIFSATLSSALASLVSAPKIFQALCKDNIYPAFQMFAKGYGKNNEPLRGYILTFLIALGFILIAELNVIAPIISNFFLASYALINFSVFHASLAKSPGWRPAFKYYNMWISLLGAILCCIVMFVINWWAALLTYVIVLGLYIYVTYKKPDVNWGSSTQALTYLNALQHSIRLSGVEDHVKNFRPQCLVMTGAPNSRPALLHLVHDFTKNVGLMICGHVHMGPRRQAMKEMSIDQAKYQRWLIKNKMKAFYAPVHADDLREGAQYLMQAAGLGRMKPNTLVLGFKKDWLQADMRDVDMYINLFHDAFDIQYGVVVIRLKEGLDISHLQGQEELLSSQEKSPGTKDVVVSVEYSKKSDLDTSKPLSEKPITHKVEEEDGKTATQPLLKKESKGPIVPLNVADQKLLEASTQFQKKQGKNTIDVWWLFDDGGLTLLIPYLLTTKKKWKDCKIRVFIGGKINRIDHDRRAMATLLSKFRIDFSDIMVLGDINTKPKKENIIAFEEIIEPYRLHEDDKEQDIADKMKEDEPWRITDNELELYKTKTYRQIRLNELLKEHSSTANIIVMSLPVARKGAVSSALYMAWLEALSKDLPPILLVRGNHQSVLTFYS
Kind of data set: 86Rb+ uptake in hNKCC1A-expressing Xenopus laevis oocytes. To be noted: 86Rb+ uptake, Xenopus oocytes, 5 min, corrected for uninjected oocytes; median and range of 3–7 experiments. In kind it is cell-based.
Procedure: The oocytes were kept in Kulori medium (in mM: 90 NaCl, 1 KCl, 1 CaCl2, 1 MgCl2, 5 Hepes, pH 7.4, 182 mOsm) for 5–6 days at 19 °C prior to experiments.
To activate NKCC1A and NKCC1B prior to the ^86Rb^+ uptake measurements aimed at measuring NKCC-mediated fluxes, hNKCC1A- or hNKCC1B-expressing oocytes or uninjected control oocytes (4–13 oocytes per well) were pre-incubated for 30 min at room temperature in a K^+-free solution (containing in mM: 5 choline chloride, 95 NaCl, 1 MgCl2, 1 CaCl2, 10 Hepes, pH 7.4, 207 mOsm), which causes shrinkage of the oocyte and thus activation of NKCC1A[22]. […] The radioactivity was determined by liquid scintillation β-counting with Aquasafe 300 Plus scintillation cocktail (Zinsser Analytic GmbH, Frankfurt, Germany) using a Microbeta Trilux (Perkin Elmer). hNKCC1-mediated K^+ uptake was assessed as ([fluxNKCC1-expressing oocytes in presence of x µM drug]−[fluxuninjected oocytes in presence of x µM drug]), in order to correct for endogenous NKCC activity. […]
Significance of differences in transport activity of hNKCC1A or hNKCC1B expressing oocytes vs. uninjected oocytes were analyzed by the Kruskal-Wallis test followed by Dunn’s multiple comparisons test. […]

The subject of data set [4] is NKCC1. To be noted: Activated state; isoforms not differentiated; turkey erythrocytes; mIMCD-K2 cells; chick cardiac cells; winter flounder intestine; rat erythrocytes and thymocytes; ref Palfrey et al.[48]; Schlatter et al.[23]; Frelin et al.[49]; O’Grady et al.[50]; Glanville et al.[51]; Hannaert et al.[52]; cited from earlier work.
On the set-up of data set [5]: method as in DrugBank database. The settings on record: ref DrugBank database; cited from earlier work.
Data set [6] concerns hNKCC2 isoform F. To be noted: Xenopus oocytes; ref Payne et al.[57]; Isenring et al.[58]; Plata et al.[59]; Carota et al.[56]; Lykke et al.[60]; Lykke et al.[29]; read-out: IC50 (µM) NKCC2 (hF); cited from earlier work.

Turning to `CCCCNc1cc(C(=O)O)cc(S(N)(=O)=O)c1Oc1ccccc1` [Bumetanide], the plasma protein binding in data set [1] was more than 95%. Also, the IC50 was 0.16 to 0.28 µM in data set [2], 0.945 µM in data set [3], 0.25 to 0.6 µM in data set [4] and 0.16 µM in data set [6]. The “Lipophilicity (logP)” value in data set [5] is on record as 2.7.
